According to patent publication US20140193338A1, “COMPOUNDS FOR USE IN IMAGING, DIAGNOSING AND/OR TREATMENT OF DISEASES OF THE CENTRAL NERVOUS SYSTEM” (PIRAMAL IMAGING SA, priority 2011, published 2014):
Entries after “also recorded” stand apart in the source; their conditions may differ.

Tests used:
[1] = test system: MAO-B; assay: PET brain time activity curves (SUV) in cynomolgus monkeys; format: in vivo, cynomolgus monkey
Procedure: One monkey weighing 6.3 kg was injected i.v. with 163 MBq [^18F]rasagiline (compound F) under sevofluorane anaesthesia.
Two cynomolgus monkeys weighting 5.25 and 6.2 kg, respectively were investigated. They were injected i.v. under sevofluorane anaesthesia with 168 MBq and 174 MBq [^18F],(^2H2)rasagiline (1), respectively.

[2] = Blood radioactivity / metabolite profile by radio-HPLC after tracer injection; format: in vivo, cynomolgus monkey; conditions: for number of ^18F labelled metabolites detected: plasma, radio-HPLC, over the time of the investigation
Source text: In addition, the blood radioactivity profiles have been monitored over time using radio-HPLC measurements and were decay corrected (d.c.) (FIGS. 4 and 5).

[3] = biological target: T1, MAO-B (Homo sapiens, UniProt P27338); assay: Autoradiography with [^18F]rasagiline on human brain sections, blocking with excess inhibitor; format: binding
T1 construct: Autoradiography using [^18F]rasagiline on human brain slices from a healthy subject; from tissue; host or cells: human brain hemisphere cryosections (100 µm)
T1 sequence (P27338 1-520): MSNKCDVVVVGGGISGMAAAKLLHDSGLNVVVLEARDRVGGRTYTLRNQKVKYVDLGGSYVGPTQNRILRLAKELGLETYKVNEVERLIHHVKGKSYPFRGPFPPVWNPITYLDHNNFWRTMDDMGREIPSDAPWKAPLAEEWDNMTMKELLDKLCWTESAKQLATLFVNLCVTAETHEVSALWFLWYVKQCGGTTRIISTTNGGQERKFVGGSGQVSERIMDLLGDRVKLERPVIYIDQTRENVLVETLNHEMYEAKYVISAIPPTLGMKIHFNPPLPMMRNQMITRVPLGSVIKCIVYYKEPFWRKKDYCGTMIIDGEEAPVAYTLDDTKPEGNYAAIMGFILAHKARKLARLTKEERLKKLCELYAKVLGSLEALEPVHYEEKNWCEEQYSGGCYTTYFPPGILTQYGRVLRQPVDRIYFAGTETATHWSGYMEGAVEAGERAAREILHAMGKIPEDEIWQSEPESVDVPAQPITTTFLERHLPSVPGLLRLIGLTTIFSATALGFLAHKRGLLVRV
Procedure: Binding of the [^18F]rasagiline (compound of formula F) was investigated on human brain sections from normal subjects using a standard protocol.
In brief, whole brain hemispheres were cut at a 100 μm thickness in a Cryocut (Leica, Germany), thaw mounted onto gelatine glass slides and kept at −25° C. before use. Thereafter, the slides containing the regions of interest (e.g. hippocampus, thalamus) were removed and brought to room temperature. The sections were incubated with 0.2 MBq/mL [^18F] compound F in 50 mM TRIS/0.1% BSA (pH 7.4) with salts (120 mM NaCl, 5 mM KCl, 1 mM CaCl2, 1 mM MgCl2) for 90 min at room temperature and washed three times for 5 min each in 50 mM TRIS (pH 7.4). The sections were dipped once into ice cold distilled water, dried at room temperature and exposed to PhosphorImager plates (FUJI BAS 5000) overnight.

[4] = pre-treated with 0.5 mg/kg (L)-deprenyl

number of ^18F labelled metabolites detected [2] | specificity of the ligand ([3]; conclusion from blocking experiments) | autoradiography signal in brain regions with known MAO-B activity ([3]; human brain slices, healthy subject, globus pallidus, putamen, caudate, thalamus, hippocampus, 0.2 MBq/mL, 90 min) | initial brain uptake, striatal (caudate and putamen) and thalamic ROI ([1]; i.v., PET) | initial brain uptake, whole brain ([1]; i.v., PET) | increase of whole brain signal over time ([1]; until the end of the observation time) | whole brain level after slight elimination ([1]; within 15 minutes) | blocking of the [^18F]rasagiline (compound F) autoradiography signal ([3]; excess (10 μM) of the inhibitor in the incubation solution) | SMILES | initial uptake in whole brain relative to [^18F]rasagiline (compound F) ([1]; i.v., PET) | decrease in uptake after deprenyl pre-treatment, Cerebellum [1, 4] | decrease in uptake after deprenyl pre-treatment, Striatum [1, 4] | decrease in uptake after deprenyl pre-treatment, Thalamus [1, 4] | decrease in uptake after deprenyl pre-treatment, cortex [1, 4] | brain elimination behaviour after initial uptake ([1]; whole brain TAC) | metabolite corrected blood radioactivity time curve compared to the non-deuterated compound ([2]; decay corrected)
two |  |  |  |  |  |  |  | [2H]C([2H])(C#C)N[C@H]1c2ccccc2C[C@@H]1[18F] [compound 1, (1S,2S)-2-[^18F]fluoro-N-[(1,1-^2H2)prop-2-yn-1-yl]indan-1-amine] | comparable to that of [^18F]rasagiline (compound F) | 46% | 45% | 47% | 40% | eliminated in a manner resembling that of a reversible ligand | slower elimination; also recorded: increased blood radioactivity over time
eight | specifically interacting with MAO-B | high signal intensity | ca. 400 % SUV | ca. 280 % SUV | about 35 % SUV | ca. 225 % SUV |  | C#CCN[C@H]1c2ccccc2C[C@@H]1[18F] [compound F, reference compound] |  |  |  |  |  |  | 
 |  |  |  |  |  |  | completely blocked | C#CCN[C@@H]1CCc2ccccc21 [rasagiline] |  |  |  |  |  |  | 
